In patent US8129163B2, “Gene suitable for alcohol dehydrogenase, vector and transformant” (Kaneka Corporation, priority 2006, dated 2012):

System: RMA
Format: biochemical, Candida maltosa IFO 1977 strain
Conditions: inhibitor 1 mM, 30° C. for 30 minutes; untreated RMA = 100%
Experimental: In 1 mM concentration solution or mixture of various compounds, a polypeptide is treated at 30° C. for 30 minutes. […] Concentrations of agents at the time of treatment are illustrated in Table 6.

`[Cl][Hg][Cl]` [HgCl2, mercury chloride] and `c1cnc2c(c1)ccc1cccnc12` [o-Phenanthroline] are the same in “Relative activity (%) of RMA after treatment with inhibitor” value (“Relative activity (%) … with inhibitor” for short): 0.0% for the first, 0.0% for the second.

Compared with `O=S(=O)(F)Cc1ccccc1` [Phenylmethanesulfonyl fluoride], `O=C(O)c1ccc(O)cc1` [p-Hydroxybenzoic acid] is lower in “Relative activity (%) … with inhibitor” value: 96.0% for the first, 91.5% for the second.

Compared with `CCN1C(=O)C=CC1=O` [N-Ethylmaleimide], `O=S(=O)([O-])[O-].[Cu+2]` [CuSO4, copper sulfate] is lower in “Relative activity (%) … with inhibitor” value: 94.7% for the first, 28.5% for the second.

Same assay, conditions: treatment at 30° C. for 30 minutes, concentrations of Table 6

`[Cl][Hg][Cl]` [HgCl2, mercury chloride] was tested, and the “inhibition of RMA (in words)” value was “inhibited”.
`c1cnc2c(c1)ccc1cccnc12` [o-Phenanthroline] was tested, and the “inhibition of RMA (in words)” value was “inhibited”.
For `O=S(=O)([O-])[O-].[Cu+2]` [CuSO4, copper sulfate], the “inhibition of RMA (in words)” value was “inhibited”.

System: RMA
Conditions: carbonyl compound 1.5 mM, NADH 0.25 mM, pH 6.5, 30° C.; acetophenone = 100%

Compared with `CCOC(=O)C(C)=O` [Ethyl pyruvate], `COC(=O)C(C)=O` [Methyl pyruvate] is lower in “Relative activity (%) (reducing activity)” value: 87% for the first, 71% for the second.

First: O=CCCc1ccccc1 [3-Phenypropionaldehyde]
Second: CC(=O)CCc1ccccc1 [Benzylacetone]
The “Relative activity (%) (reducing activity)” value of the first is higher: 112% for the first, 33% for the second.

Compared with `CCOC(=O)C(Cl)C(C)=O` (stereo not drawn) [Ethyl 2-chloroacetoacetate], `CC(=O)C(Cl)C(C)=O` [3-Chloro-2,4-pentadione] is higher in “Relative activity (%) (reducing activity)” value: 26% for the first, 43% for the second.

Compared with `CCCCCCC(C)=O` [2-Octanone], `CCCCCC(C)=O` [2-Heptanone] is lower in “Relative activity (%) (reducing activity)” value: 95% for the first, 82% for the second.

First: CC(C)=O [Acetone]
Second: CC(=O)C(C)=O [diacethyl]
The “Relative activity (%) (reducing activity)” value of the first is higher: 28% for the first, 24% for the second.

Going from `CC(=O)c1ccccc1Cl` [o-Chloroacetophenone] to `CC(=O)c1ccccc1O` [o-Hydroxyacetophenone], the “Relative activity (%) (reducing activity)” value rises from 2% to 9%.

Compared with `CC(=O)c1cnccn1` [Acetypyrazine], `CC(=O)c1ccccn1` [2-Acetylpyridine] is lower in “Relative activity (%) (reducing activity)” value: 76% for the first, 63% for the second.

First: CC(=O)CC(N)=O [Acetoacetamide]
Second: CC(=O)CC(C)=O [Acethylacetone]
The “Relative activity (%) (reducing activity)” value of the first is lower: 10% for the first, 19% for the second.

Compared with `COC(=O)CC(=O)CCl` [Methyl 4-chloroacetoacetate], `CCOC(=O)CC(=O)CCl` [Ethyl 4-chloroacetoacetate] is higher in “Relative activity (%) (reducing activity)” value: 35% for the first, 52% for the second.

First: CC(=O)CC(=O)OC(C)(C)C [tert-Butylacetoacetate]
Second: COC(=O)CC(C)=O [Methyl acetoacetate]
The “Relative activity (%) (reducing activity)” value of the first is higher: 88% for the first, 66% for the second.

Compared with `CC(=O)c1ccc(C)cc1` [p-Methylacetophenone], `CC(=O)c1ccc(Cl)cc1` [p-Chloroacetohenone] is higher in “Relative activity (%) (reducing activity)” value: 91% for the first, 130% for the second.

Going from `CC(=O)c1ccco1` [2-Acetyrfuran] to `CC(=O)c1cccnc1` [3-Acetylpyridine], the “Relative activity (%) (reducing activity)” value rises from 8% to 19%.

First: CC(=O)c1ccncc1 [4-Acetylpyridine]
Second: CC(=O)c1ccccc1 [Acetophenone]
The “Relative activity (%) (reducing activity)” value of the first is lower: 83% for the first, 100% for the second.

First: CC(=O)CC(C)C [4-Methyl-2-pentanone]
Second: CC(=O)C(C)C [Methyl iso-propyl ketone]
The “Relative activity (%) (reducing activity)” value of the first is higher: 70% for the first, 4% for the second.

Going from `CCCCCCCCOC(=O)CC(=O)CCl` [n-Octyl 4-chloroacetoacetate] to `CCCCCCCCC(=O)C(=O)OC` [Methyl 2-oxodecanate], the “Relative activity (%) (reducing activity)” value falls from 24% to 2%.

Going from `CCC(C)=O` [2-Butanone] to `CCCC(C)=O` [2-Pentanone], the “Relative activity (%) (reducing activity)” value rises from 54% to 141%.

Compared with `CCCCCC(=O)CC` [3-Octanone], `CCCCC(C)=O` [2-Hexanone] is higher in “Relative activity (%) (reducing activity)” value: 3% for the first, 87% for the second.

Going from `O=Cc1ccc([N+](=O)[O-])cc1` [p-Nitrobenzaldehyde] to `O=Cc1cccc([N+](=O)[O-])c1` [m-Nitrobenzaldehyde], the “Relative activity (%) (reducing activity)” value rises from 27% to 28%.

Going from `CC(=O)CC(=O)Nc1ccc(Cl)cc1` [4′-Chroloacetoacetanilide] to `CC(=O)CC(=O)Nc1ccc(C)cc1` [N-Acetoacetyl-p-toluidine], the “Relative activity (%) (reducing activity)” value falls from 4% to 2%.

Compared with `CC(=O)CC(=O)Nc1cc(Cl)ccc1Cl` [2′,5′-Dichloro acetoacetanilide], `COc1ccccc1NC(=O)CC(C)=O` [o-Acetoacetanisidide] is higher in “Relative activity (%) (reducing activity)” value: 34% for the first, 35% for the second.

Compared with `CC(C=O)c1ccccc1` (stereo not drawn) [2-Phenypropionaldehyde], `O=Cc1ccccc1` [Benzaldehyde] is lower in “Relative activity (%) (reducing activity)” value: 37% for the first, 29% for the second.

Compared with `CCOC(=O)CC(=O)CN=[N+]=[N-]` [Ethyl 4-azideacetoacetate], `CCCC(=O)CC(=O)OCC` [Ethyl 3-oxohexanate] is lower in “Relative activity (%) (reducing activity)” value: 21% for the first, 2% for the second.

Compared with `O=C1CCCC1` [Cyclopentanone], `O=C1CCSC1` [Tetrahydrothiophen-3-one] is lower in “Relative activity (%) (reducing activity)” value: 10% for the first, 4% for the second.

First: CCC=O [Propionaldehyde]
Second: CCCC=O [n-Butyraldehyde]
The “Relative activity (%) (reducing activity)” value of the first is lower: 39% for the first, 117% for the second.

First: CC(=O)c1ccc(F)cc1 [p-Fluoroacetophenone]
Second: CCOC(=O)c1ccc(C(C)=O)cc1 [Ethyl 4-acetylbenzoate]
The “Relative activity (%) (reducing activity)” value of the first is higher: 110% for the first, 70% for the second.

Going from `CC(=O)c1cc2ccoc2cn1` [5-Acetylfuro[2.3-c]pyridine] to `COc1cccc(C(C)=O)c1` [m-Methoxyacetophenone], the “Relative activity (%) (reducing activity)” value rises from 63% to 111%.

Compared with `CC(=O)c1cccc(Cl)c1` [m-Chloroacetophenone], `CC(=O)c1cccc(O)c1` [m-Hydroxyacetophenone] is lower in “Relative activity (%) (reducing activity)” value: 130% for the first, 12% for the second.

First: CCOC(=O)CC(=O)COCc1ccccc1 [Ethyl 4-benzyloxyacetoacetate]
Second: CC(=O)CC(=O)OCc1ccccc1 [Benzyl acetoacetate]
The “Relative activity (%) (reducing activity)” value of the first is lower: 10% for the first, 115% for the second.

First: O=Cc1ccncc1 [4-Pyridinecarbaldehyde]
Second: O=Cc1ccccn1 [2-Pyridinecarbaldehyde]
The “Relative activity (%) (reducing activity)” value of the first is lower: 5% for the first, 11% for the second.

First: COc1ccccc1C(C)=O [o-Methoxyacetophenone]
Second: CC(=O)CC(=O)Nc1ccccc1 [Acetoacetoanilide]
The “Relative activity (%) (reducing activity)” value of the first is higher: 10% for the first, 1% for the second.

First: CCOC(=O)CC(C)=O [Ethyl 3-oxobutanoate]
Second: CCCCCC=O [n-Hexylaldehyde]
The “Relative activity (%) (reducing activity)” value of the first is lower: 93% for the first, 117% for the second.

Going from `CC(=O)c1cccc([N+](=O)[O-])c1` [m-Nitroacetophenone] to `O=Cc1ccccc1[N+](=O)[O-]` [o-Nitrobenzeldehyde], the “Relative activity (%) (reducing activity)” value falls from 89% to 29%.

`O=CCCCC=O` [Glutaraldehyde] was tested, and the “Relative activity (%) (reducing activity)” value was 9%.

Same assay, conditions: pH 6.5

With `O=C(CCl)c1cccc(Cl)c1` [2-Chloro-1-(3′-cholophenyl)ethanone] the “Relative activity (%) (reducing activity)” value was 20%.
